The values that follow come from the supplement of paper PMC10307832.

Holding throughout (experiment): relative viability (nuclei count vs DMSO), 5 days (fraction); higher = more cells survive
Compound in the assay “Crenolanib + Navitoclax”: CC1(COc2ccc3c(c2)ncn3-c2ccc3cccc(N4CCC(N)CC4)c3n2)COC1 [Crenolanib] + CC1(C)CCC(c2ccc(Cl)cc2)=C(CN2CCN(c3ccc(C(=O)NS(=O)(=O)c4ccc(N[C@H](CCN5CCOCC5)CSc5ccccc5)c(S(=O)(=O)C(F)(F)F)c4)cc3)CC2)C1 [Navitoclax] (partner 0.5 µM)
In a few lines:
(§1)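 Medians of duplicate plates are given as relative viability. That measure is the nuclei count in treated wells divided by the count in vehicle wells. Counts were taken on 4× images of lung cancer cell lines in 1536-well plates, 5 days after pin-tool dosing the day after seeding with one drug alone or a fixed anchor-drug dose plus five library-drug doses (not always all listed) in √10 steps.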

Compound in the assay “Crenolanib + Bortezomib”: CC1(COc2ccc3c(c2)ncn3-c2ccc3cccc(N4CCC(N)CC4)c3n2)COC1 [Crenolanib] + CC(C)C[C@H](NC(=O)[C@H](Cc1ccccc1)NC(=O)c1cnccn1)B(O)O [Bortezomib] (partner 0.002 µM)
An outline of the steps:
as §1

Compound in the assay “Tivantinib + Phenformin”: O=C1NC(=O)[C@@H](c2cn3c4c(cccc24)CCC3)[C@@H]1c1c[nH]c2ccccc12 [Tivantinib] + N=C(N)NC(=N)NCCc1ccccc1 [Phenformin] (partner 250 µM)
An outline of the steps:
as §1

Compound in the assay “Crenolanib + Pemetrexed”: CC1(COc2ccc3c(c2)ncn3-c2ccc3cccc(N4CCC(N)CC4)c3n2)COC1 [Crenolanib] + Nc1nc2[nH]cc(CCc3ccc(C(=O)N[C@@H](CCC(=O)O)C(=O)O)cc3)c2c(=O)[nH]1 [Pemetrexed] (partner 0.2 µM)
An outline of the steps:
as §1

With 201T, the relative viability is 1.19 with Crenolanib + Navitoclax (first compound 0.01 µM); 1.21 in the assay with Crenolanib + Navitoclax (first compound 0.03162 µM); 1.16 in the assay with Crenolanib + Navitoclax (first compound 0.1 µM); 1.16 in the assay with Crenolanib + Navitoclax (first compound 0.3162 µM); 1.24 with Crenolanib + Navitoclax (first compound 1 µM); 1.06 with Crenolanib + Bortezomib (first compound 0.01 µM). The relative viability with Crenolanib + Bortezomib (first compound 0.03162 µM) was found to be 1.12; with Crenolanib + Bortezomib (first compound 0.1 µM), 1.06; with Crenolanib + Bortezomib (first compound 0.3162 µM), 1.04; with Crenolanib + Bortezomib (first compound 1 µM), 1.07; with Tivantinib + Phenformin (first compound 0.01 µM), 0.421; with Tivantinib + Phenformin (first compound 0.03162 µM) it was 0.458. Moreover, the relative viability stood at 0.415 with Tivantinib + Phenformin (first compound 0.1 µM); 0.451 with Tivantinib + Phenformin (first compound 0.3162 µM); 0.324 with Crenolanib + Pemetrexed (first compound 0.01 µM); 0.323 in the assay with Crenolanib + Pemetrexed (first compound 0.03162 µM); 0.34 in the assay with Crenolanib + Pemetrexed (first compound 0.1 µM); 0.322 in the assay with Crenolanib + Pemetrexed (first compound 0.3162 µM). For the same cell line, the relative viability with Crenolanib + Pemetrexed (first compound 1 µM) was 0.338.
Regarding A549, the relative viability in the assay with Crenolanib + Navitoclax (first compound 0.01 µM) came to 1.2; with Crenolanib + Navitoclax (first compound 0.03162 µM), 1.13; with Crenolanib + Navitoclax (first compound 0.1 µM), 1.18; with Crenolanib + Navitoclax (first compound 0.3162 µM) it was 1.53; with Crenolanib + Navitoclax (first compound 1 µM), 1.02; with Tivantinib + Phenformin (first compound 0.01 µM), 0.158. The relative viability in the assay with Tivantinib + Phenformin (first compound 0.03162 µM) amounted to 0.169; with Tivantinib + Phenformin (first compound 0.1 µM), 0.146; with Tivantinib + Phenformin (first compound 0.3162 µM), 0.263.
With A-427, the relative viability in the assay with Crenolanib + Navitoclax (first compound 0.01 µM) was found to be 0.995; with Crenolanib + Navitoclax (first compound 0.03162 µM), 0.912; with Crenolanib + Navitoclax (first compound 0.1 µM), 0.999; in the assay with Crenolanib + Navitoclax (first compound 0.3162 µM), 1.02; with Crenolanib + Navitoclax (first compound 1 µM) it was 0.966; with Crenolanib + Bortezomib (first compound 0.01 µM), 0.961. The relative viability with Crenolanib + Bortezomib (first compound 0.03162 µM) amounted to 1.12; with Crenolanib + Bortezomib (first compound 0.1 µM), 0.987; in the assay with Crenolanib + Bortezomib (first compound 0.3162 µM) it was 1.01; in the assay with Crenolanib + Bortezomib (first compound 1 µM), 1.03; with Tivantinib + Phenformin (first compound 0.01 µM) it was 0.378; in the assay with Tivantinib + Phenformin (first compound 0.03162 µM) it was 0.391. Also, the relative viability turned out to be 0.325 with Tivantinib + Phenformin (first compound 0.1 µM); 0.304 in the assay with Tivantinib + Phenformin (first compound 0.3162 µM); 1.01 with Crenolanib + Pemetrexed (first compound 0.01 µM); 0.99 in the assay with Crenolanib + Pemetrexed (first compound 0.1 µM); 0.989 in the assay with Crenolanib + Pemetrexed (first compound 0.3162 µM); 0.834 in the assay with Crenolanib + Pemetrexed (first compound 1 µM).
For the cell line ABC-1, the relative viability amounted to 0.289 with Crenolanib + Bortezomib (first compound 0.01 µM); 0.353 with Crenolanib + Bortezomib (first compound 0.03162 µM); 0.331 with Crenolanib + Bortezomib (first compound 0.1 µM); 0.308 with Crenolanib + Bortezomib (first compound 0.3162 µM); 0.253 with Crenolanib + Bortezomib (first compound 1 µM); 0.23 in the assay with Tivantinib + Phenformin (first compound 0.01 µM). The figures for the relative viability with Tivantinib + Phenformin (first compound 0.03162 µM), with Tivantinib + Phenformin (first compound 0.1 µM) and with Tivantinib + Phenformin (first compound 0.3162 µM) were 0.246, 0.201 and 0.228, respectively.
As to BEN, the relative viability with Crenolanib + Navitoclax (first compound 0.01 µM) worked out at 0.0589; with Crenolanib + Navitoclax (first compound 0.03162 µM), 0.0559; with Crenolanib + Navitoclax (first compound 0.1 µM) it was 0.0723; with Crenolanib + Navitoclax (first compound 0.3162 µM) it was 0.0658; with Crenolanib + Navitoclax (first compound 1 µM), 0.0687; in the assay with Crenolanib + Bortezomib (first compound 0.01 µM), 0.821. The relative viability with Crenolanib + Bortezomib (first compound 0.03162 µM) was 0.644; with Crenolanib + Bortezomib (first compound 0.1 µM), 0.733; with Crenolanib + Bortezomib (first compound 0.3162 µM), 0.881; with Crenolanib + Bortezomib (first compound 1 µM), 0.761; with Tivantinib + Phenformin (first compound 0.01 µM) it was 0.29; with Tivantinib + Phenformin (first compound 0.03162 µM), 0.258. The relative viability was determined as 0.254 with Tivantinib + Phenformin (first compound 0.1 µM); 0.26 with Tivantinib + Phenformin (first compound 0.3162 µM); 0.784 with Crenolanib + Pemetrexed (first compound 0.01 µM); 0.637 with Crenolanib + Pemetrexed (first compound 0.03162 µM); 0.677 in the assay with Crenolanib + Pemetrexed (first compound 0.1 µM); 0.752 with Crenolanib + Pemetrexed (first compound 0.3162 µM). Further, the relative viability in the assay with Crenolanib + Pemetrexed (first compound 1 µM) was found to be 0.774.
Consider CAL-12T, for which the relative viability with Crenolanib + Navitoclax (first compound 0.01 µM) was 1.48; with Crenolanib + Navitoclax (first compound 0.03162 µM), 1.19; with Crenolanib + Navitoclax (first compound 0.1 µM) it was 1.22; with Crenolanib + Navitoclax (first compound 0.3162 µM) it was 1.48; with Crenolanib + Navitoclax (first compound 1 µM), 1.26; with Crenolanib + Bortezomib (first compound 0.01 µM) it was 1.05. For the same cell line, the relative viability is 0.667 with Crenolanib + Bortezomib (first compound 0.03162 µM); 1.23 with Crenolanib + Bortezomib (first compound 0.1 µM); 1.02 in the assay with Crenolanib + Bortezomib (first compound 0.3162 µM); 0.789 with Crenolanib + Bortezomib (first compound 1 µM); 0.639 in the assay with Tivantinib + Phenformin (first compound 0.01 µM); 0.529 in the assay with Tivantinib + Phenformin (first compound 0.03162 µM). For the same cell line, the relative viability with Tivantinib + Phenformin (first compound 0.1 µM) was found to be 0.582; in the assay with Tivantinib + Phenformin (first compound 0.3162 µM), 0.259; with Crenolanib + Pemetrexed (first compound 0.01 µM), 1.28; with Crenolanib + Pemetrexed (first compound 0.03162 µM), 1.27; with Crenolanib + Pemetrexed (first compound 0.1 µM), 1.22; with Crenolanib + Pemetrexed (first compound 0.3162 µM) it was 1.34. For the same cell line, the relative viability with Crenolanib + Pemetrexed (first compound 1 µM) was found to be 1.31.
For COR-L23, the relative viability with Crenolanib + Navitoclax (first compound 0.01 µM) was 1.06; in the assay with Crenolanib + Navitoclax (first compound 0.03162 µM), 1.07; with Crenolanib + Navitoclax (first compound 0.1 µM), 0.922; with Crenolanib + Navitoclax (first compound 0.3162 µM) it was 1.12; in the assay with Crenolanib + Navitoclax (first compound 1 µM), 1.04; with Crenolanib + Bortezomib (first compound 0.01 µM), 0.983. The relative viability turned out to be 1.16 in the assay with Crenolanib + Bortezomib (first compound 0.03162 µM); 0.921 with Crenolanib + Bortezomib (first compound 0.1 µM); 1.13 with Crenolanib + Bortezomib (first compound 0.3162 µM); 1.03 in the assay with Crenolanib + Bortezomib (first compound 1 µM); 0.453 with Tivantinib + Phenformin (first compound 0.01 µM); 0.416 with Tivantinib + Phenformin (first compound 0.03162 µM). Moreover, the relative viability with Tivantinib + Phenformin (first compound 0.1 µM) came to 0.415; in the assay with Tivantinib + Phenformin (first compound 0.3162 µM), 0.508; in the assay with Crenolanib + Pemetrexed (first compound 0.01 µM), 0.185; with Crenolanib + Pemetrexed (first compound 0.03162 µM) it was 0.189; with Crenolanib + Pemetrexed (first compound 0.1 µM) it was 0.201; with Crenolanib + Pemetrexed (first compound 0.3162 µM) it was 0.199. The relative viability with Crenolanib + Pemetrexed (first compound 1 µM) stood at 0.202.
COR-L 105: the relative viability was 0.766 with Crenolanib + Navitoclax (first compound 0.01 µM); 0.778 with Crenolanib + Navitoclax (first compound 0.03162 µM); 0.713 in the assay with Crenolanib + Navitoclax (first compound 0.1 µM); 0.975 in the assay with Crenolanib + Navitoclax (first compound 0.3162 µM); 0.884 with Crenolanib + Navitoclax (first compound 1 µM); 0.95 with Crenolanib + Bortezomib (first compound 0.01 µM). Moreover, the relative viability in the assay with Crenolanib + Bortezomib (first compound 0.03162 µM) turned out to be 0.863; with Crenolanib + Bortezomib (first compound 0.1 µM), 0.646; with Crenolanib + Bortezomib (first compound 0.3162 µM), 0.825; with Crenolanib + Bortezomib (first compound 1 µM), 0.676; with Tivantinib + Phenformin (first compound 0.01 µM) it was 0.523; with Tivantinib + Phenformin (first compound 0.03162 µM), 0.366. Besides, the relative viability worked out at 0.401 with Tivantinib + Phenformin (first compound 0.1 µM); 0.369 in the assay with Tivantinib + Phenformin (first compound 0.3162 µM); 1.25 in the assay with Crenolanib + Pemetrexed (first compound 0.01 µM); 1.09 in the assay with Crenolanib + Pemetrexed (first compound 0.03162 µM); 1.09 with Crenolanib + Pemetrexed (first compound 0.1 µM); 1.14 with Crenolanib + Pemetrexed (first compound 0.3162 µM). Further, the relative viability with Crenolanib + Pemetrexed (first compound 1 µM) worked out at 1.1.
